Consider seven compounds from publication PMC9428149, “Tackling recalcitrant Pseudomonas aeruginosa infections in critical illness via anti-virulence monotherapy” (Nature Communications, 2022).

Structures are written as SMILES.

Test [1] deals with pqsA promoter (PA14 PpqsA-GFPASV). In words: pqsA-GFP reporter expression. The class given is cell-based, Pseudomonas aeruginosa. Particulars: PA14 PpqsA-GFPASV; 50µM per b210 (method b76 says 10 µM). The procedure:
The expression levels of pqsA, which is representative of the pqsABCDE operon transcription, were monitored in the presence of the MvfR inhibitors using PA14 cells containing the PpqsA-GFPASV, a reporter construct of the pqsA promoter fused to a short half-life GFP gene in, such that quantitative quenching of fluorescence corresponds to pqsA promoter repression[22],[32],[48]. […] GFP fluorescence levels were measured at λex = 485 nm/λem = 535 nm after 10 seconds of shaking every 15 min up to 12 h. The IC50 of PpqsA-GFP expression levels was performed as above using the same 13 different concentrations (0.0122–50 μM) for each of the 13 compounds tested.

For test [2], the system named is pyocyanin production in PA14. Nature of the test: Pyocyanin production assay. To be noted: PA14; 50µM of each inhibitor (method says 10 μM); vs vehicle.
Experimental: The over-day culture was grown to OD600nm 1.5., diluted again at 1:10,000 in 5 mL LB and incubated with 10 μM of the test compound or the vehicle control for 18 hours at 37 °C and 200 rpm in an incubator shaker. After 18 h, 1 mL of culture was centrifuged for 2 min at 20.000 x g. The supernatant was transferred to a new tube, 200 μL of this were loaded in a flat-bottom 96-well plate, and the pyocyanin levels were quantified by measuring at OD690nm in the infinite F200 plate reader using the Magellan software (Tecan, Switzerland). […] The percent of pyocyanin was calculated compared to the PA14 culture grown in the absence of compounds.
To determine the IC50 of pyocyanin production, we followed the same process as above. […] Using GraphPad Prism Software, the IC50 curve was plotted against percent inhibition of pyocyanin production at each concentration using PA14 in the absence of compounds as a control.
The test system of test [3] is MvfR-regulated small molecules in PA14. In words: Production of HAQs, 2-AA, DHQ and AA in PA14 cultures (LC-MS). To be noted: PA14, 50µM inhibitor; for % Production AA: anthranilic acid, precursor control.

`N#Cc1ccc(NC(=O)CCC(=O)Nc2ccc(F)cc2)cc1` [D47]: the “% Production pqsA-GFP” value in test [1] is reported as 78%. For the same compound, the “% Production Pyocyanin” value in test [2] is on record as 99%. Moreover, in test [3], the “% Production 2-AA” value is on record as 100%, the “% Production DHQ” value amounted to 100%, the “% Production HHQ” value worked out at 95% and the “% Production HQNO” value is 93%. In test [3], the “% Production PQS” value is listed as 94% and the “% Production AA” value was 42%.

With `N#Cc1ccc(NC(=O)CCNc2ccc(F)cc2)cc1` [D34], the “% Production pqsA-GFP” value in test [1] is 80%. Moreover, the “% Production Pyocyanin” value in test [2] is given as 91%. For the same compound, in test [3], the “% Production 2-AA” value was 113%, the “% Production DHQ” value is 100%, the “% Production HHQ” value amounted to 97% and the “% Production HQNO” value is 96%. In addition, in test [3], the “% Production PQS” value came to 97% and the “% Production AA” value came to 101%.

As to `CC(=O)Nc1ccc(NC(=O)CC(=O)Nc2ccc(C#N)cc2)cc1` [D53], the “% Production pqsA-GFP” value in test [1] came to 85%. For the same compound, in test [2], the “% Production Pyocyanin” value was 103%. For the same compound, in test [3], the “% Production 2-AA” value is reported as 93%, the “% Production DHQ” value turned out to be 98%, the “% Production HHQ” value is given as 75% and the “% Production HQNO” value is recorded as 85%. Further, in test [3], the “% Production PQS” value stood at 88% and the “% Production AA” value is 56%.

For the compound `N#Cc1ccc(NC(=O)CC(=O)Nc2ccc(Oc3ccccc3)cc2)c(O)c1` [D63], the “% Production pqsA-GFP” value in test [1] is 7%. In test [2], the “% Production Pyocyanin” value is given as 6%. Besides, in test [3], the “% Production 2-AA” value was determined as 5%, the “% Production DHQ” value worked out at 4%, the “% Production HHQ” value was determined as 0% and the “% Production HQNO” value is recorded as 4%. In addition, in test [3], the “% Production PQS” value is given as 4% and the “% Production AA” value is reported as 68%.

Take `Cc1cc(F)ccc1NCC(=O)Nc1ccccc1C#N` [G3]: the “% Production pqsA-GFP” value in test [1] stood at 96%. Besides, the “% Production Pyocyanin” value in test [2] came to 113%. In test [3], the “% Production 2-AA” value is listed as 123%, the “% Production HHQ” value came to 99%, the “% Production HQNO” value is given as 111% and the “% Production PQS” value is 122%.

Regarding `CS(=O)(=O)Nc1ccc(NC(=O)CC(=O)Nc2ccc(C#N)cc2)cc1` [D55], the “% Production pqsA-GFP” value in test [1] came to 131%. Moreover, the “% Production Pyocyanin” value in test [2] amounted to 100%. For the same compound, in test [3], the “% Production 2-AA” value is given as 95%, the “% Production DHQ” value is listed as 80%, the “% Production HHQ” value stood at 130% and the “% Production HQNO” value was determined as 98%. In test [3], the “% Production PQS” value was 115% and the “% Production AA” value was found to be 117%.

In the case of `N#Cc1ccc(NC(=O)CC(=O)Nc2ccc([N+](=O)[O-])cc2)cc1` [D51], the “% Production pqsA-GFP” value in test [1] is listed as 10%. Further, the “% Production Pyocyanin” value in test [2] came out at 3%. Also, in test [3], the “% Production 2-AA” value came to 7%, the “% Production DHQ” value came to 12%, the “% Production HHQ” value came out at 3% and the “% Production HQNO” value is 18%. Also, in test [3], the “% Production PQS” value came out at 6% and the “% Production AA” value worked out at 263%.
